# Results: article PMC10492782, “Exploiting the aggregation propensity of beta-lactamases to design inhibitors that induce enzyme misfolding” (Nature Communications, 2023)
# Columns and labels:
# [1] = target: T1, recombinantly purified TEM-1 (Escherichia coli, UniProt P62593); assay type: biochemical, E. coli; conditions: pFTAA fluorescence kinetics
# T1 construct: His-tag (N); TEV cleavage site (N); made in house; host or cells: E. coli BL21 (DE3)
# Method: Fig. 4 Aggregation kinetics of TEM and SHV proteins and peptides. A Measurements of the hydrodynamic radius by Dynamic Light Scattering of 50 μM TEM3.2 in buffer alone, or in the presence of LPS or polyphosphate (PolyP). […] C Transmission Electron Micrograph of 50 μM TEM 3.2 incubated for 24 h in the same buffer as A with polyP, negatively stained with 2% (w/v) uranyl acetate. A single representative image is shown. […] Three replicates are shown for each condition. E Aggregation kinetics using pFTAA fluorescence emission of recombinantly purified TEM-1, in the presence of vehicle, or TEM 3.2 peptin, as well as peptin-only control. F Similar as in E, but using an off-target Pept-In, based on an APR sequence of beta-galactosidase. G Similar to E, but now using a previously published off-target Pept-In, based on an APR of HcaB. The plots are the results of a single experiment, all replicates are shown. Source data are provided as a Source Data file.
# [2] = system: E. coli K12 MG1655 overexpressing GFP; test: Structured illumination microscopy of strains expressing GFP or FP fusions; assay type: cell-based, Escherichia coli; conditions: strains stably expressing GFP or proteins fused to FPs treated with TEM3.2
# Text: (§1) Fig. 5 Induction of aggregation in cells. […] A single representative image is shown. […] A single representative image is shown. C SIM and brightfield images as in A, but for E. coli ATCC strain. […] A single representative image is shown. […] A single representative blot is shown. […] The corrected P-values were 0.6091, 0.0029, 0.0027, <0.0001, and 0.9992, from left to right. […] Statistics exactly as in E, but from 3 independent experiments. The corrected P-values were 0.8753, 0.9796, 0.0001, 0.0003, and 0.0003, from left to right. Source data are provided as a Source Data file.
# Bacteria were fixed by adding 2.5% paraformaldehyde and 0.04 % glutaraldehyde (final concentrations) to the culture media, followed by incubation at room temperature for 15 min and 30 min on ice. Bacteria were then washed in PBS and resuspended in GTE buffer (50 mM glucose, 25 mM Tris, and 10 mM EDTA, pH 8.0). Directly preceding microscopic analysis, cells were transferred to a glass slide and covered with a coverslip. Imaging was performed using a Zeiss Elyra S.1 system in the VIB BioImaging Core at KU Leuven.
# [3] = target: T2, TEM beta-lactamase in E. coli strain UZ_TEM104 (Escherichia coli, UniProt P62593); test: Western blot of inclusion body fraction; assay type: cell-based; conditions: 12 μM peptide in PBS, 120 min
# T2 construct: endogenous in cells
# Text: as §1
# (§2) Overnight cultures of bacteria were centrifuged for 30 min at 4000 × g and cells were washed with physiological water (NaCl 0.9%). Bacterial cells were treated by peptide at the appropriate concentration for at least 2 h at 37 C. The bacterial pellets were washed with 10 mL buffer A (50 mM HEPES, pH 7.5, 300 mM NaCl, 5 mM β-mercaptoethanol, 1.0 mM EDTA) and centrifuged at 4 °C for 30 min at 4000 × g. […]
# [4] = system: SHV beta-lactamase in E. coli SHV-11; test: Western blot of inclusion body fraction; assay type: cell-based, Escherichia coli; conditions: 12 μM peptide in PBS, 120 min
# Text: as §1, §2
# E. coli UZ_TEM104 = test: FACS with pFTAA (aggregation) and propidium iodide (cell death); assay type: cell-based, Escherichia coli
# Method: Fig. 6 Uptake and inclusion body formation upon peptide treatment. Fluorescence-activated cell-sorting (FACS) (A) of E. coli strain UZ_TEM104 mixed 50–50% with the same strain after heat-inactivation. The cells were stained with pFTAA to monitor aggregation and propidium iodide (PI) to monitor cell permeabilization associated with cell death. 10^6 cells were analyzed for the plot. […] B Similar FACS analysis as in A, but with a sample of live bacteria only. […] Note: the horizontal and vertical lines correspond to the gatings used to obtain the quantifications shown in the corners of each image.
# Treated bacteria were washed with PBS buffer two times. One microliter of PI (Invitrogen) was added to the bacteria and incubated for 5 min. The bacteria were counted by FACS to reach 40000 events. To correlate the activity of the peptides with cell death, the fluorescence intensity was measured in two channels using the Gallios^TM Flow Cytometer (Beckman Coulter, USA), PI: excitation 536 nm and emission 617 nm, FITC: excitation 490 nm and emission 525 nm. Heated bacteria at 90 °C for 10 min were used as PI-positive control.
# The bacterial cultures were washed with PBS, and the number of bacteria was adjusted to 10^8–10^9 cells/mL. […] Then, cells were treated with LCO dyes (pFTAA; Amytacker^TM680 or Amytacker^TM545: final concentration of 0.5 µM; Ebba Biotech, Sweden) for at least 90 min. The absorption, emission, and excitation spectra for each dye were measured based on the standard Ebbabiotec advice (ebbabiotech.com).
# HeLa cells = test: CellTiter Blue cell viability; conditions: 24 h, 37 °C, DMEM without serum
# Method: Fig. 7 Evaluation of in vivo use of peptides that induce the aggregation of TEM beta-lactamase. A Lysis of human erythrocytes (hemolysis) was assessed in the presence of the indicated concentrations of TEM3.2 for 2 h at 37 °C, and normalized to the value obtained with 1% of the detergent triton. […] B Cell viability using the CellTiter Blue assay of HeLa cells treated for 24 h with the indicated concentrations TEM 3.2 at 37 °C. […] DAPI (4’,6-diamidino-2-phenylindole) is blue, while CellMask is red. D Experimental workflow of the in vivo model used in this study. E–G Bacterial load of indicated organs of female C57BL/6JAX mice with a urinary tract infection with E. coli strain UZ_TEM104, treated with 30 mg/kg penicillin (oral) as well 10 mg/kg tazobactam (oral) or 10 mg/kg TEM3.2 via the indicated treatment route. IV intravenous, IP intraperitoneal, SC subcutaneously. The data shown is from a single experiment with 12 animals for each group. The result for each animal is shown as a dot. […] The statistically significant differences were determined using ANOVA, followed by Dunnett’s multiple comparison test. […]
# The Cell Titer Blue assay was performed to evaluate the cell viability according to the instructions of the manufacturer (Promega, USA). […] The fluorescence was measured at 590 nm by exciting at 560 nm with a ClarioStar plate reader (BMG Labtech, Germany).
# [5] = system: primary Human Umbilical Vein Endothelial Cells (HUVEC); conditions: 24 h, 400 to 12.5 µg/mL
# Method: The Cell Titer Blue assay was performed to evaluate the cell viability according to the instructions of the manufacturer (Promega, USA). The peptide treatments were done in DMEM medium without serum. Briefly, cells were seeded to approximately 20,000 mammalian cells per well in a 96-well flat-bottom plate (BD Biosciences 353075) and incubated at 37 °C with 5% CO2 and 90% humidity. Peptides were diluted in cell medium, and cells were treated for 24 h. 20 μL of the CellTiter Blue reagent was added to each well and the plate was incubated for 1 h at 37 °C. The fluorescence was measured at 590 nm by exciting at 560 nm with a ClarioStar plate reader (BMG Labtech, Germany).
# T2 sequence (P62593 24-286 limits assumed): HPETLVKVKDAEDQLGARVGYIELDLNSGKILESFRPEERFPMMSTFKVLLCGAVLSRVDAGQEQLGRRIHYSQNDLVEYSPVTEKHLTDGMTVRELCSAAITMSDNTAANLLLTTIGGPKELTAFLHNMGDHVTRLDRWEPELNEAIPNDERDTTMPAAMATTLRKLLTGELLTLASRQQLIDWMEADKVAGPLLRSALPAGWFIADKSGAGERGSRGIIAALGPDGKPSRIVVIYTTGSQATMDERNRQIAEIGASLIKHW
# T1 sequence (P62593 24-286 limits assumed): as above
substance,measurement,setting,value
Ac-RLTAFLHNRRPRLTAFLRQRR-NH2 [TEM3.2],induction of aggregation of recombinantly purified TEM beta-lactamase (in words),[1],potent inducer of the aggregation of the TEM beta-lactamase
same,induced aggregation of unrelated fluorescent proteins (in words),[2],did not observe a similar induced aggregation of the fluorescent proteins
same,"TEM protein in inclusion body fraction, western blot (in words)",[3],clear enrichment of the TEM protein in IBs
same,"SHV enzyme in inclusion body fraction, western blot (in words)",[4],accumulates in IBs
same,cells with non-lethal aggregation (pFTAA shift),"E. coli UZ_TEM104; 50 μg/mL TEM3.2, 4 h in PBS",> 99%
same,shift in pFTAA and PI channels (in words),"E. coli UZ_TEM104; 4 h, penicillin G 400 μg/mL and/or TEM3.2 50 μg/mL",a shift of the bacterial population only in the pFTAA channel
same,"cytotoxicity, Cell Titer Blue (in words)",HeLa cells,not cytotoxic
same,"cytotoxicity, Cell Titer Blue (in words)",[5],not cytotoxic
